In patent US20240116985A1, “STAPLED PEPTIDES AND METHODS THEREOF” (priority 2020, published 2024):
Values after ≈ are worked out from the molar mass of the structure shown. Values joined by “and” are separate entries in the source; they are usually repeats but may differ in a detail not shown here. Identical values can stand only once. Like-named read-outs stand apart in the source and are kept apart here.

How the values were obtained:
CHI Log D procedure = type: physicochemical; conditions: for chromatographic logD: pH 7.4, CHI Log D
Solubility in PBS = type: physicochemical
Outline: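 Read-out is the HPLC peak area of the supernatant from ultracentrifuged PBS solution, scaled against a 50 μM peptide DMSO injection; value reported as [(PBS area)/(DMSO area)]*50 uM.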

[1] = target: T1, beta-catenin/TCF4 engagement (Homo sapiens, UniProt P35222); assay: Nano-BRET target engagement assay (B-cat-Halo & TCF4-Luc in HEK293 cells); type: cell-based; conditions: for BRET % Inhibition: replicates
T1 construct: expressed in transfected cells; host or cells: HEK293
T1 sequence (P35222 1-781): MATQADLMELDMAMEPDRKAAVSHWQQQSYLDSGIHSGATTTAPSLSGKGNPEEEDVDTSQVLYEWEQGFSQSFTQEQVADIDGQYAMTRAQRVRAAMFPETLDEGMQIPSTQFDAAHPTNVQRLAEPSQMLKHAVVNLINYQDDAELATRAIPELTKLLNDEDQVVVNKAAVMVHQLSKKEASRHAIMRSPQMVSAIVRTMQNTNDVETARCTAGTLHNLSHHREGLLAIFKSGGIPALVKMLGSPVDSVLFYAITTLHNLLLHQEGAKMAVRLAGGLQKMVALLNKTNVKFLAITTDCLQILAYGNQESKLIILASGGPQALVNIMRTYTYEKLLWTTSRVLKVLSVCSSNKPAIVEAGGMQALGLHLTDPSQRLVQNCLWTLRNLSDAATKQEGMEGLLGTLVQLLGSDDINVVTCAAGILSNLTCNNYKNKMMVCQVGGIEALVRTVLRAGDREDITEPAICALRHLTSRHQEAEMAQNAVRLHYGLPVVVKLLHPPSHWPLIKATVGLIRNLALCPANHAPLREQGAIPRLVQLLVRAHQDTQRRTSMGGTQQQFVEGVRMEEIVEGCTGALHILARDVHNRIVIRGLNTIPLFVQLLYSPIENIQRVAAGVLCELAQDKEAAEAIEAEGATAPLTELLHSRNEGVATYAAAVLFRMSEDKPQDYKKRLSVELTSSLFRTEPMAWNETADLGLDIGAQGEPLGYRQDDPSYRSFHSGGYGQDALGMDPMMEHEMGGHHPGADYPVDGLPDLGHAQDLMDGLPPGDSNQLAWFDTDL

in vitro = type: cell-based; conditions: human, HEK293 cells, CTG (CellTiter Glo) Relative to Media
Protocol: (§1) On Day 3, fluorescence was read with Nano-BRET substrates. Remove plates from incubator to allow to reach to RT (30 min). Also equilibrate CTG reagent to Rm Temp. Dilute Nano-BRET substrate 1:100 in Assay media. Add 25 uL of diluted substrate to each well and shake for 30 seconds. Read on ClarioSTAR or GloMAX right away (within 10 min). Donor emission @ 460 nm. Acceptor emission @ 618 nm. Use the same plate to measure cell viability (Cell Titer-Glo-2.0 (CTG) Viability test). After reading BRET signal, add CTG reagent to each well at 1:2 ratio and shake on orbital shaker for 2 min. Incubate at Rm Temp for 10-30 min. Read luminescence on ClarioSTAR or GloMAX. Analysis was performed using Prism. Non-linear regression. Log (inhibitor) vs response—variable slope (four parameters). For CTG data linear values (not logarithmic).

HEK293 cells = assay: in vitro; type: cell-based; conditions: human, 1.25 µM
Protocol: as §1

[2] = target: T2, full-length beta-Catenin (Uniprot ID P35222) (Homo sapiens, UniProt P35222); assay: Fluorescence polarization IC50 (beta-catenin / 5FAM-TCF4 10-53 competition); type: binding
T2 construct: 10 nM full-length beta-Catenin (Uniprot ID P35222)
T2 sequence (P35222 1-781): T1 sequence (P35222 1-781)

[3] = test system: TCF/LEF luciferase Reporter in DLD1 cells; assay: TCF reporter assay (DLD1 TCF/LEF luciferase reporter, Bright-Glo); type: cell-based
Outline: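 Readouts: Bright-Glo luciferase for reporter signal and CellTiter-Glo for cell viability, with absolute IC50 derived. The reporter clone came from lentiviral TCF/LEF-luciferase transduction of DLD1 cells, seeded 5000 cells/well in RPMI with 4% FBS and exposed overnight to serially diluted compounds.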

COLO320DM cells = type: cell-based; conditions: read-out: COLO320DM Proliferation Abs IC50
Outline: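 COLO320DM cells at 250 cells/well in RPMI-1640 + 4% HI FBS, dosed after 18–22 h with a 7-point […] 1/2 dilution series from 20 uM down to 313 nM.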

Axin2 and Myc = assay: Gene expression in cells (FIG. 1); type: cell-based
Source text: FIG. 1. Provided agents can modulate gene expression in cells.

PLOD2 and LCOR = assay: Expression of beta-catenin-independent genes (FIG. 2); type: cell-based
DLD1 = assay: Reporter assay (e.g., DLD1 reporter assay) (FIG. 3); type: cell-based; conditions: compared to a control peptide I-796
Source text: FIG. 3. Provided technologies can effectively modulate expression.
Various technologies can be utilized for characterizing and/or assessing provided technologies (e.g., agents (e.g., various peptides), compositions, methods, etc.) in accordance with the present disclosure. As described herein, in some embodiments, a useful technology is or comprises fluorescence polarization. In some embodiments, a useful technology assesses Log P or Log D. In some embodiments, a useful technology is or comprises a CHI Log D assay. In some embodiments, a useful technology assesses solubility. In some embodiments, a useful technology is or comprises NanoBRET. In some embodiments, a useful technology is or comprises a reporter assay (e.g., DLD1 reporter assay). In some embodiments, a useful technology is or comprises alphascreen. Certain useful protocols are described in the Examples. Those skilled in the art appreciate that suitable adjustments may be made to such protocols, e.g., according to specific conditions, agents, purposes, etc.

[4] = plate row B = 20 uM, integration 0.3 s, reading 1
[5] = fluorescence polarization, beta-catenin, read-out: FP EC50
[6] = read-out: DLD1 4% Abs IC50, DLD1 4%
[7] = Peptide + ST-Protein (SAINT-Protein lipid), read-out: Nano-BRET Abs IC50
[8] = Peptide only, read-out: Nano-BRET Abs IC50
[9] = absolute IC50, read-out: NanoBRET Abs IC50
[10] = Peptide + ST-Protein (SAINT-Protein lipid), read-out: TCF Reporter Assay Abs IC50
[11] = Peptide only, read-out: TCF Reporter Assay Abs IC50

CC(=O)N1CCC[C@]12CC=CCCCC1(CCCC=CCCCOC(=O)N3CC[C@@](C(=O)N[C@@H](Cc4ccsc4)C(=O)N[C@@H](Cc4csc5ccccc45)C(=O)N[C@@H](CCC(N)=O)C(N)=O)(C3)NC(=O)[C@H](CC(N)=O)NC(=O)[C@H](CC(=O)O)NC(=O)[C@H](C)NC(=O)[C@H](C)NC(=O)[C@H](CC(=O)O)NC(=O)[C@H](CC(=O)O)NC1=O)NC(=O)[C@H](CC(C)(C)C)NC(=O)[C@H](Cc1ccccc1)NC2=O (stereo partly drawn) [I-797, Ac-PL3-Phe-Npg-B5-Asp-Asp-Ala-Ala-Asp-Asn-PyrS2-3Thi-BztA-Gln-NH2]
chromatographic logD (CHI Log D procedure): 2.32
solubility at 15 min (Solubility in PBS; Solubility (uM)): 45 µM (≈ 86.3 µg/mL)
BRET % Inhibition ([1]; 0.625 uM): −56.5% and −6.9% and 8.3%
BRET % Inhibition ([1]; 1.25 uM): −24.8% and −1.1% and −4.0%
BRET % Inhibition ([1]; 2.5 uM): −21.3% and 26.5% and −11.7%
BRET % Inhibition ([1]; 5 uM): −16.9% and −28.4% and −18.6%
BRET % Inhibition ([1]; 10 uM): −21.7% and −21.9% and 1.7%
BRET % Inhibition ([1]; 20 uM): −36.7% and −0.3% and −19.5%
inhibition at 10 µM ([1]; HEK293, @ 10 uM, read-out: NanoBRET % inh @ 10 uM): 4.3%
BRET Acceptor 600 LP raw reading [1, 4]: 860 and 660 and 640
BRET Donor 450 BP raw reading [1, 4]: 58480 and 55870 and 47990
BRET Acceptor 600 LP raw reading ([1]; plate row D = 5 uM): 510 and 420 and 630
BRET Donor 450 BP raw reading ([1]; plate row D = 5 uM): 38850 and 29900 and 47500
BRET Donor 450 BP raw reading ([1]; plate row E = 2.5 uM): 34130 and 22720 and 40100
BRET Acceptor 600 LP raw reading ([1]; plate row G = 0.625 uM): 410 and 440 and 530
BRET Donor 450 BP raw reading ([1]; plate row G = 0.625 uM): 25180 and 35670 and 47630
IC50 ([1]; read-out: NanoBRET IC50): > 20 µM
viability at 0.625 µM (in vitro): 104%
viability at 1.25 µM (in vitro): 104%
viability at 2.5 µM (in vitro): 103%
viability at 5 µM (in vitro): 102%
viability at 10 µM (in vitro): 100%
viability at 20 µM (in vitro): 92%
CTG (CellTiter Glo) Relative to Media (HEK293 cells): 101

CC(=O)N1CCC[C@]12CC=CCCCC1(CCCC=CCCCOC(=O)N3CC[C@@](C(=O)N[C@@H](Cc4ccsc4)C(=O)N[C@@H](Cc4csc5ccccc45)C(=O)N[C@@H](CCC(N)=O)C(N)=O)(C3)NC(=O)[C@H](CC(C)C)NC(=O)[C@H](Cc3ccccc3)NC(=O)[C@H](C)NC(=O)[C@H](C)NC(=O)[C@H](CC(=O)O)NC(=O)[C@H](CC(=O)O)NC1=O)NC(=O)[C@H](CC(C)(C)C)NC(=O)[C@H](CC(=O)O)NC2=O (stereo partly drawn) [I-801, Ac-PL3-Asp-Npg-B5-Asp-Asp-Ala-Ala-Phe-Leu-PyrS2-3Thi-BztA-Gln-NH2]
IC50 [2, 5]: 0.006 µM
IC50 ([2]; read-out: beta-Catenin FP IC50): 0.007 µM
chromatographic logD (CHI Log D procedure): 2.21
Solubility (Solubility in PBS): 50 µM (≈ 95.9 µg/mL)
IC50 ([1]; read-out: NanoBRET Abs IC50): 5.8 µM
IC50 ([1]; read-out: NanoBRET IC50): 6.8 µM
IC50 [3, 6]: 4.3 µM
IC50 (COLO320DM cells): > 20 µM

CC(=O)N1CCC[C@]12CC=CCCCC1(CCCC=CCCCOC(=O)N3CC[C@@](C(=O)N[C@@H](Cc4ccsc4)C(=O)N[C@@H](Cc4csc5ccccc45)C(=O)N[C@@H](CCC(N)=O)C(N)=O)(C3)NC(=O)[C@H](CC(C)C)NC(=O)[C@H](Cc3ccccc3)NC(=O)[C@H](C)NC(=O)[C@H](C)NC(=O)[C@H](CN(CC(=O)O)CC(F)(F)F)NC(=O)[C@H](CC(=O)O)NC1=O)NC(=O)[C@H](CC(C)(C)C)NC(=O)[C@H](CC(=O)O)NC2=O (stereo partly drawn) [I-849, Ac-PL3-Asp-Npg-B5-Asp-TfeGA-Ala-Ala-Phe-Leu-PyrS2-3Thi-BztA-Gln-NH2]
expression of various nucleic acids such as Axin2 and Myc (Axin2 and Myc): can effectively reduce expression
expression of beta-catenin-independent genes including beta-catenin-independent WNT target genes such as PLOD2 and LCOR (PLOD2 and LCOR): do not significantly impact expression
expression in a report assay (DLD1): can effectively reduce expression
IC50 [2, 5]: 0.007 µM
IC50 ([2]; read-out: beta-Catenin FP IC50): 0.008 µM
CHI Log D (CHI Log D procedure; pH 7.4): 2.393
IC50 [1, 7]: 0.7 µM
IC50 [1, 8]: 5 µM
IC50 [1, 9]: 2.6 µM
IC50 ([1]; read-out: NanoBRET Abs IC50): 3.6 µM
IC50 ([1]; read-out: NanoBRET IC50): 2.3 µM
IC50 [3, 10]: 0.2 µM
IC50 [3, 11]: 5 µM
IC50 [3, 6]: 1.1 µM

CC(=O)N1CCC[C@]12CC=CCCCC1(CCCC=CCCCOC(=O)N3CC[C@@](C(=O)N[C@@H](Cc4ccccc4Cl)C(=O)N[C@@H](Cc4csc5ccccc45)C(=O)N[C@@H](CCO)C(N)=O)(C3)NC(=O)[C@H](CCO)NC(=O)[C@H](Cc3ccccc3)NC(=O)[C@H](C)NC(=O)[C@H](C)NC(=O)[C@H](CN(CC(=O)O)CC(F)(F)F)NC(=O)[C@H](CC(=O)O)NC1=O)NC(=O)[C@H](CC(C)(C)C)NC(=O)[C@H](CC(=O)O)NC2=O (stereo partly drawn) [I-993, Ac-PL3-Asp-Npg-B5-Asp-TfeGA-Ala-Ala-Phe-Hse-PyrS2-2C1F-BztA-Hse-NH2]
IC50 [2, 5]: 0.012 µM
IC50 ([2]; read-out: beta-Catenin FP IC50): 0.018 µM
chromatographic logD (CHI Log D procedure): 2.33
Solubility (Solubility in PBS; Solubility (uM)): 41 µM (≈ 82.7 µg/mL)
IC50 [1, 7]: 0.9 µM
IC50 [1, 8]: 7 µM
IC50 [1, 9]: 4 µM
IC50 ([1]; read-out: NanoBRET Abs IC50): 4.9 µM
IC50 [3, 10]: 0.2 µM
IC50 [3, 11]: 5 µM
IC50 ([3]; absolute IC50, read-out: DLD1 reporter assay Abs IC50): 4.4 µM
IC50 [3, 6]: 1.8 µM
IC50 (COLO320DM cells): 3.6 µM
